Assay results published in ChEMBL document CHEMBL1136778, “Mitomycin antitumor compounds. 2. Interaction of transition metal ions with mitomycin C. Solution structure and biological activity of a Pd(2+)-MMC complex” (J Med Chem, 2003).

Legend:
[1] = tested on: K562; assay: In vitro inhibitory activity against K562 leukemia cells; format: functional, cell-based; conditions: Homo sapiens
[2] = tested on: K562; assay: In vitro inhibitory activity against K562 leukemia cells in the presence of pd2; format: functional, cell-based; conditions: Homo sapiens

CC1=C(N)C(=O)c2c(COC(N)=O)c3n(c2C1=O)C[C@H](N)[C@@H]3O
IC50 [1]: 33 nM

CO[C@@]12[C@H](COC(N)=O)C3=C(C(=O)C(C)=C(N)C3=O)N1C[C@@H]1N[C@@H]12 [MITOMYCIN]
IC50 [1]: 1 nM
IC50 [2]: 15.8 nM
